Assay results taken from US5019492A, “Photographic element and process comprising a blocked photographically useful compound” (Eastman Kodak Company, priority 1989, dated 1991).

Columns and labels:
[1] = Deblocking of blocked filter dyes in C-41 developer with or without hydroxylamine sulfate at 38° C.; conditions: unblocked dye
Experimental: FILTER DYE Gelatin (4844); blocked filter dye
bis(vinylsulfonylmethyl) ether
Strips of each coating were soaked at 38° C. in C-41 developer or in the same C-41 developer formulation from which hydroxylamine sulfate (HAS) had been omitted. The rate of deblocking of each filter dye was followed by measuring the density at the absorption maximum of the unblocked dye at selected time intervals.

[2] = Model deblocking (hydrolysis) half-lives of esters with mononucleophile (A+B) or dinucleophile hydroxylamine (A+C), pH 10, 25° C.; format: physicochemical; conditions: for Ratio (A+B half-life to A+C half-life): rate enhancement due to hydroxylamine; for rate enhancement due to dinucleophile (hydroxylamine) participation, compared with comparison esters E-4 and E-5: pH 10.0, 25° C.
Experimental: Model studies were conducted on esters E-1 through E-5 to determine the possible rate enhancement which could be attained by using a dinucleophile rather than a mononucleophile to promote the removal from a phenolic moiety of a blocking group of this invention. Aqueous solutions A, B, and C, each containing 50% by volume of acetonitrile were prepared as follows (a separate solution A for each ester):
Solution A: 2.5 × 10^-4 M ester (or 2.5 × 10^-5 M
Solution B: 25% by volume carbonate buffer
(ionic strength 0.75); 0.05 N KCl
Solution C: Solution B with added 0.05 M
Then equal volumes of A and B (or A and C) were mixed at 25° C. to give a pH 10.0 solution and the reaction was followed by spectrophotometric measurements of the phenol (272 nm) or p-nitrophenol (402 nm) produced with time. In each case a reaction half-life (t1/2) was calculated from the equation t1/2 =1n(2)/k, where 1n(2) is the natural logarithm of 2 and k is the pseudo first-order rate constant calculated for the reaction. Smaller half-lives thus indicate more rapid reactions. The A+B combination provides an alkaline solution in which the main reactant is hydroxide ion (a mononucleophile) while in the A+C combination the active reactant is hydroxylamine (a dinucleophile). A ratio of the A+B half-life to the A+C half-life provides a measure of rate enhancement due to participation of hydroxylamine in the deblocking reaction.

[3] = Unblocking of shifted masking coupler in fixed unexposed strips (density at 520 nm); conditions: blocked compound
Experimental: Each compound was dispersed in an equal weight of 2,4-di-t-pentylphenol and coated in the following format on a poly(ethylene terephthalate) film support (unless otherwise specified, component amounts are given in mg/m^2 with silver halide counted as silver):
OVERCOAT Gelatin (2691); bis(vinylsulfonyl-
LAYER: methyl) ether hardener (1.75% of
EMULSION Gelatin (3767); unsensitized AgBr
LAYER: emulsion (906); masking coupler
Unexposed strips of this coated element were soaked 1 minute in a fixing solution to remove silver halide, washed, and then immersed in one of the following processing solutions at temperatures conventionally used for processing in a KODAK C-41 process:
P-1: pH 10 carbonate buffer
P-2: pH 10 carbonate buffer with 0.024M hydroxylamine sulfate
P-3: C-41 color developer with hydroxylamine sulfate omitted
P-4: C-41 color developer solution containing hydroxylamine sulfate

λmax (Unblocked) [1] [nm] | Ratio (A+B half-life to A+C half-life) [2] | rate enhancement due to dinucleophile (hydroxylamine) participation, compared with comparison esters E-4 and E-5 [2] | Compound | other results
440 |  |  | CCCCCCCCCCCCOC(=O)c1ccc(N=Nc2ccc(N(CC)C(=O)OCc3ccc(OC(=O)C4(C)CCCCC4=O)c(Cl)c3)c(OC)c2)cc1 (stereo not drawn) [Compound 5] | 
440 |  |  | CCCCCCCCCCCCOC(=O)c1ccc(N=Nc2ccc(N(CC)C(=O)OCc3ccc(OC(=O)C4(C)CCCCC4=O)c(NS(C)(=O)=O)c3)c(OC)c2)cc1 (stereo not drawn) [Compound 4] | 
 | 166 |  | CC(=O)CC(C)(C)C(=O)Oc1ccccc1 [Compound E-5, reference compound] | 
 | 3.2 × 10^6 | twenty to seventy thousand times greater | CC1(C(=O)Oc2ccccc2)CCCCC1=O (stereo not drawn) [Compound E-3] | 
 | 47 |  | CC(=O)CCC(=O)Oc1ccccc1 [Compound E-4, reference compound] | 
 |  |  | CCC(C)(C)c1ccc(OCCCCNC(=O)c2cc(Oc3ccc(N=Nc4cc(OC(C)C(=O)O)c5ccccc5c4OC(=O)C4(C)CCCCC4=O)cc3)c3ccccc3c2O)c(C(C)(C)CC)c1 (stereo not drawn) [Compound 3] | absorption maximum (blocked) [3]: about 375 nm
 | 93 × 10^3 | twenty to seventy thousand times greater | CC(=O)C(C)(C)C(=O)Oc1ccccc1 [Compound E-2] | 
 | 36 × 10^3 | twenty to seventy thousand times greater | CC(=O)C(C)(C)C(=O)Oc1ccc([N+](=O)[O-])cc1 [Compound E-1] | 
495 |  |  | CCCCCCCCCCCCN(C(=O)OCc1ccc(OC(=O)C2(C)CCCCC2=O)c(NS(C)(=O)=O)c1)c1ccc(N=Nc2ccc([N+](=O)[O-])cc2C(=O)OC)cc1OC (stereo not drawn) [Compound 6] | 
